Results on 5 compounds are retold here after publication PMC7046635, “A combined experimental and modelling approach for the Weimberg pathway optimisation” (Nature Communications, 2020).

The target in assay [1] is T1, D-xylose dehydrogenase (XDH) (Caulobacter vibrioides, UniProt B8H1Z0).
T1 construct: gene xylB; full-length gene in pET vector, N-terminal His tag, E. coli expression, Ni-TED and size exclusion
T1 sequence (B8H1Z0 1-248): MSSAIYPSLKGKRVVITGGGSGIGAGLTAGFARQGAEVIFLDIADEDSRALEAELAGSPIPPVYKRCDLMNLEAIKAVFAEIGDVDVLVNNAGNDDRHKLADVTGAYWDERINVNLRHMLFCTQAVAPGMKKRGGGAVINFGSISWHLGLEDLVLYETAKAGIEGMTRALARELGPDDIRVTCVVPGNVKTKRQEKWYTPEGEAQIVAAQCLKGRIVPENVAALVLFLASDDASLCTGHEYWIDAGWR
In words: biochemical. To be noted: read-out: K estimate (mM), inhibition. On the set-up: product inhibition constants from fits of rate equations to initial rate kinetics of purified enzyme.

The target of assay [2] is T2, α-Ketoglutarate semialdehyde dehydrogenase (KGSADH) (Caulobacter vibrioides, UniProt A0A0H3C801).
T2 construct: gene xylA; full-length gene in pET vector, N-terminal His tag, E. coli expression, Ni-TED and size exclusion
T2 sequence (A0A0H3C801 1-478): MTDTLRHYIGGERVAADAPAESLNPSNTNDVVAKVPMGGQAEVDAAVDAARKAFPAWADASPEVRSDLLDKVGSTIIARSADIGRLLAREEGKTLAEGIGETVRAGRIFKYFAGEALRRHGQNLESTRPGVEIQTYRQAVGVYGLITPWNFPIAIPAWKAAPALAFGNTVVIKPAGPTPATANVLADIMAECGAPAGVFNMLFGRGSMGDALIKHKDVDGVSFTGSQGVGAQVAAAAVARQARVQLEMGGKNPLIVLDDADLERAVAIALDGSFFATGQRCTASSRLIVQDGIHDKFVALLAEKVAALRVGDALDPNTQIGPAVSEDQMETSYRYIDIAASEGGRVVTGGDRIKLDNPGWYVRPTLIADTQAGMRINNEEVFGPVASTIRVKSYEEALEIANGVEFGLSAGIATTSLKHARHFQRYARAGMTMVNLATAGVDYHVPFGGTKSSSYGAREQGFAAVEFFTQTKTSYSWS
In words: biochemical. Details: product inhibition constants from fits of rate equations to initial rate kinetics of purified enzyme. To be noted: read-out: K estimate (mM), inhibition. On the procedure: (§1) All reactions completed the substrate conversion in roughly 90 min, which is in agreement with model simulations that include product inhibition (Fig. 2c). However, a much slower conversion was observed than predicted, based on initial rate kinetics excluding product inhibition (Supplementary Note 1 and Supplementary Figs. 9–11). […] For XLA and KDXD, the inhibition constants for D-xylonate and KGSA, respectively, had to be fitted based on the conversion data, as these enzymes are analysed in coupled enzyme assays. The progress curves after single enzyme additions and the required model adjustments are shown and discussed in Supplementary Note 1, all enzyme kinetic parameters are shown in Supplementary Tables 3–7. […] As a final step in model construction, the one-pot cascade model was established. The results of the sequential pathway reconstruction were used to define the ‘reference state’ for the one-pot cascade conversion of D-xylose to α-[compound left out] (Supplementary Note 1). For this, we added the five enzymes together, using amounts close to those used in the sequential experiment (2.5 μg ml^−1 XDH, 0.8 μg ml^−1 XLA, 8.67 μg ml^−1 XAD, 0.5 μg ml^−1 KDXD and 10 μg ml^−1 KGSADH). The conversion of 5 mM D-xylose via the pathway intermediates to α-[compound left out] was followed using NMR (Fig. 3a). The model based on the isolated reaction kinetics predicted the first part of the pathway accurately, i.e., D-xylose oxidation, lactone cleavage and D-xylonate dehydration. […] S2 enzyme (Supplementary Table 5), measured using an off-line colorimetric assay. […] Product inhibition for the individual metabolites and combination of metabolites was determined in initial rate experiments in a linked KGSADH assay (Supplementary Fig. 7), while for α-[compound left out] semialdehyde the binding constant was estimated in a conversion assay (Supplementary Fig. 10b).

The target in assay [3] is T3, D-xylonate dehydratase (XAD) (Caulobacter vibrioides, UniProt Q9A9Z2).
T3 construct: gene xylD; full-length gene in pET vector, N-terminal His tag, E. coli expression, Ni-TED and size exclusion, stored with MnCl2
T3 sequence (Q9A9Z2 whole entry): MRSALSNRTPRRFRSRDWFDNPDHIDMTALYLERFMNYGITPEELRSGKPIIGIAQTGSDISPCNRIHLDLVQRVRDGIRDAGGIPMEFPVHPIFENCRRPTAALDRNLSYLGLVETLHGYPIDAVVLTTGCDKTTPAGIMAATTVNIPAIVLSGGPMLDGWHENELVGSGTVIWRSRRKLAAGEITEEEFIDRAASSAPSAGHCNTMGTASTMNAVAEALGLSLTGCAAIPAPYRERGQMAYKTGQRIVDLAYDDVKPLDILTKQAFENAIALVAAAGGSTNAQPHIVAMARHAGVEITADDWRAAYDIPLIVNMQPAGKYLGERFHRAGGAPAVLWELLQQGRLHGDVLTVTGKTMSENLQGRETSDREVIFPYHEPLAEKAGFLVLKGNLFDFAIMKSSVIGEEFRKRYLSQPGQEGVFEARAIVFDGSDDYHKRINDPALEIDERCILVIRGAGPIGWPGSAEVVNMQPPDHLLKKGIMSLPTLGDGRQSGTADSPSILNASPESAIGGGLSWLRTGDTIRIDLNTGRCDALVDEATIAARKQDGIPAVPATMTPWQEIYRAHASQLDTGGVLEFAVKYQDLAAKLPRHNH
Description: discontinuous thiobarbituric acid assay. The class given is biochemical. The conditions noted are these: 100 mM HEPES/NaOH pH 7.5, 37 °C, enzyme stored with 17 µmol MnCl2 per mg.

In assay [4] the target is T4, D-xylonate dehydratase (XAD) (Caulobacter vibrioides, UniProt A0A0H3C6H6).
T4 construct: gene xylD; full-length gene in pET vector, N-terminal His tag, E. coli expression
T4 sequence (A0A0H3C6H6 1-591): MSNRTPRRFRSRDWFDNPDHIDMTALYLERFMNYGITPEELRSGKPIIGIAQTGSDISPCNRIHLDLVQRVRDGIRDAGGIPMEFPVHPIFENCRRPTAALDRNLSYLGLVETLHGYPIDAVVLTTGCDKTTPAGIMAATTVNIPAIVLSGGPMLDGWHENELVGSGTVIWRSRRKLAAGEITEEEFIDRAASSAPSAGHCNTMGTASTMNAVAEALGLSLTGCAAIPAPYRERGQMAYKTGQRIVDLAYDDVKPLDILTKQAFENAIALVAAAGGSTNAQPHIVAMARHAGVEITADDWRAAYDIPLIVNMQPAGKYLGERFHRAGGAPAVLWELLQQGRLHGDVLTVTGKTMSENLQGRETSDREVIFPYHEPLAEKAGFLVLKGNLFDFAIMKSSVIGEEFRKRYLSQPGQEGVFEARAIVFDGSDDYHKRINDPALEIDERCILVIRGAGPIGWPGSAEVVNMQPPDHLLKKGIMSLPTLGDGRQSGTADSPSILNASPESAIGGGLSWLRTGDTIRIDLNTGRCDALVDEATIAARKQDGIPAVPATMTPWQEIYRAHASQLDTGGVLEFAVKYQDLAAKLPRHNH
In words: biochemical. On the set-up: product inhibition constants from fits of rate equations to initial rate kinetics of purified enzyme. The conditions noted are these: read-out: K estimate (mM), inhibition. On the procedure:
as §1

`O=C1O[C@H](CO)[C@H](O)[C@H]1O` [D-xylono-1,4-lactone]: the Ki in assay [1] was 0.54 mM.

Consider `O=C(O)CCC(=O)C(=O)O` [KG], for which the Ki in assay [2] was 0.28 mM.

As a reminder, the Km is the substrate concentration at which the rate is half of its maximum. On to `O=C(O)[C@H](O)[C@@H](O)[C@H](O)CO` [D-xylonate], for which the Michaelis constant (Km) in assay [3] was determined as 790 µM.

`NC(=O)C1=CN([C@@H]2O[C@H](COP(=O)(O)OP(=O)(O)OC[C@H]3O[C@@H](n4cnc5c(N)ncnc54)[C@H](O)[C@@H]3O)[C@@H](O)[C@H]2O)C=CC1` [NADH]: the Ki in assay [1] was 0.03 mM.

Consider `O=C(O)C(=O)C[C@H](O)CO` [2-keto-3-deoxy-D-xylonate], for which the Ki was 0.86 mM in assay [4] and 0.021 mM in assay [2].
